Assay results taken from US11382892B2, “Method for administration” (Hoffmann-La Roche Inc., priority 2012, dated 2022).
Several values for one entry are separate records, joined by “and”; a condition that tells them apart may be missing. Identical values can stand only once.

Tests used:
[1] = Toxicity summary (body weight, mortality) in SJSA1 xenograft study; assay type: in vivo
From the text: (§1) In the examples below, weight loss was graphically represented as percent change in mean group body weight, using the formula: ((W−W0)/W0)×100, where ‘W’ represents mean body weight of the treated group at a particular day, and ‘W0’ represents mean body weight of the same treated group at initiation of treatment.
(§2) Female athymic Crl:NU-Foxn1nu mice (10/group), obtained from Charles River Laboratories (Wilmington, Del.) were utilized when they were approximately 10-12 weeks of age and weighed 23-25 g. The health of the mice was assessed daily by gross observation and analyses of blood samples taken from sentinel animals housed on shared shelf racks. All animals were allowed to acclimate and recover from any shipping-related stress for a minimum of 72 hours prior to experimental use. Autoclaved water and irradiated food (5058-ms Pico Lab mouse chow, Purina Mills, Richmond, Ind.) were provided ad libitum, and the animals were maintained on a 12 hour light and dark cycle. Cages, bedding and water bottles were autoclaved before use and changed weekly. All animal experiments were conducted in accordance with the Guide for the Care and Use of Laboratory Animals, local regulations, and protocols approved by the Roche Animal Care and Use Committee in an AAALAC accredited facility.
Treatment duration was 2-4 weeks. Dates of tumor implant, treatment initiation (study start date), and termination of treatment (study end date) can be found in Table 6 below. The starting tumor volume for this study was about 220 mm^3. Tumor volumes and animal body weights were measured three times per week and animals were monitored for clinical signs daily.

[2] = Toxicity summary (body weight, mortality) in MOLM-13 xenograft study; assay type: in vivo; settings: MOLM-13 study
From the text: as §1
as §2, with “SCID:beige” for “athymic Crl:NU-Foxn1nu”, “8-10” for “10-12”, “21-23” for “23-25”
Treatment duration was initiated on day 3 and was for 2 weeks. Animal body weights were measured three times per week and animals were monitored for clinical signs daily.

tumor proliferation = test: FLT PET imaging of tumor proliferation in patients; assay type: in vivo, human; settings: for FLT PET Average % CBL: cohort average; for FLT PET Median % CBL: cohort median; for FLT PET % CBL Cycle 1: individual patients
Description: The 10 mg tablets contain hypromellose acetate succinate, mannitol, microcrystalline cellulose, croscarmellose sodium, colloidal silicon dioxide, and magnesium stearate. The film-coat consists of hypromellose, titanium dioxide, talc, triacetin, iron oxide yellow, and iron oxide red. The 50 mg, 200 mg, and 400 mg film coated tablets contain the excipients hypromellose acetate succinate, croscarmellose sodium, colloidal silicon dioxide, and magnesium stearate. The film-coat consists of polyvinyl alcohol, titanium dioxide, polyethylene glycol, talc, iron oxide yellow, iron oxide red, and iron oxide black. […]
A negative percent change from baseline is indicative of an antiproliferative effect.

solid tumors = test: On-going Phase I studies in solid tumors; assay type: in vivo, human
From the text: Thus, a 3-5 daily treatment schedule is expected to provide the best benefit ratio taking into consideration efficacy and toxicity.

[3] = 100 mg/kg QD po 2 on/12 off x 2
[4] = 200 mg/kg (two 100 mg/kg doses 8 hr apart) 1x/wk po

COc1cc(C(=O)O)ccc1NC(=O)[C@@H]1N[C@@H](CC(C)(C)C)[C@](C#N)(c2ccc(Cl)cc2F)[C@H]1c1cccc(Cl)c1F [Compound A, 4-{[(2R,3S,4R,5S)-4-(4-Chloro-2-fluoro-phenyl)-3-(3-chloro-2-fluoro-phenyl)-4-cyano-5-(2,2-dimethyl-propyl)-pyrrolidine-2-carbonyl]-amino}-3-methoxy-benzoic acid]
# of animals ≥20% BWL ([1]; 7.5 mg/kg QD po): 0
% Change in Body Weight at end of Study Day 29 ([1]; 7.5 mg/kg QD po): 9.0%
Maximum % Weight gain ([1]; 7.5 mg/kg QD po): 9.0%
Maximum % Weight loss ([1]; 7.5 mg/kg QD po): −0.3%
Mortality ([1]; 7.5 mg/kg QD po): 0
# of animals ≥20% BWL ([1]; 15 mg/kg QD po): 0
% Change in Body Weight at end of Study Day 29 ([1]; 15 mg/kg QD po): 5.9%
Maximum % Weight gain ([1]; 15 mg/kg QD po): 5.9%
Maximum % Weight loss ([1]; 15 mg/kg QD po): −2.2%
Mortality ([1]; 15 mg/kg QD po): 0
# of animals ≥20% BWL ([1]; 20 mg/kg QD po 20 on/8 off): 0
% Change in Body Weight at end of Study Day 29 ([1]; 20 mg/kg QD po 20 on/8 off): 1.2%
Maximum % Weight gain ([1]; 20 mg/kg QD po 20 on/8 off): 1.2%
Maximum % Weight loss ([1]; 20 mg/kg QD po 20 on/8 off): −3.9%
Mortality ([1]; 20 mg/kg QD po 20 on/8 off): 0
# of animals ≥20% BWL ([1]; 30 mg/kg QD po): 0
% Change in Body Weight at end of Study Day 29 ([1]; 30 mg/kg QD po): 1.3%
Maximum % Weight gain ([1]; 30 mg/kg QD po): 1.3%
Maximum % Weight loss ([1]; 30 mg/kg QD po): −0.2%
Mortality ([1]; 30 mg/kg QD po): 0
# of animals ≥20% BWL ([1]; 50 mg/kg 1x/wk po): 0
% Change in Body Weight at end of Study Day 29 ([1]; 50 mg/kg 1x/wk po): 6.6%
Maximum % Weight gain ([1]; 50 mg/kg 1x/wk po): 6.6%
Maximum % Weight loss ([1]; 50 mg/kg 1x/wk po): −0.3%
Mortality ([1]; 50 mg/kg 1x/wk po): 0
# of animals ≥20% BWL ([1]; 50 mg/kg QD po 2 on/5 off x 4): 0
% Change in Body Weight at end of Study Day 29 ([1]; 50 mg/kg QD po 2 on/5 off x 4): 7.1%
Maximum % Weight gain ([1]; 50 mg/kg QD po 2 on/5 off x 4): 7.1%
Maximum % Weight loss ([1]; 50 mg/kg QD po 2 on/5 off x 4): −0.8%
Mortality ([1]; 50 mg/kg QD po 2 on/5 off x 4): 0
# of animals ≥20% BWL ([1]; 50 mg/kg QD po 4 on/10 off x 2): 0
% Change in Body Weight at end of Study Day 29 ([1]; 50 mg/kg QD po 4 on/10 off x 2): 1.2%
Maximum % Weight gain ([1]; 50 mg/kg QD po 4 on/10 off x 2): 1.2%
Maximum % Weight loss ([1]; 50 mg/kg QD po 4 on/10 off x 2): −1.1%
Mortality ([1]; 50 mg/kg QD po 4 on/10 off x 2): 0
# of animals ≥20% BWL ([1]; 80 mg/kg QD po 5 on/23 off): 0
% Change in Body Weight at end of Study Day 29 ([1]; 80 mg/kg QD po 5 on/23 off): 8.0%
Maximum % Weight gain ([1]; 80 mg/kg QD po 5 on/23 off): 8.0%
Maximum % Weight loss ([1]; 80 mg/kg QD po 5 on/23 off): 0.3%
Mortality ([1]; 80 mg/kg QD po 5 on/23 off): 0
# of animals ≥20% BWL ([1]; 100 mg/kg 1x/wk po): 0
% Change in Body Weight at end of Study Day 29 ([1]; 100 mg/kg 1x/wk po): 9.1%
Maximum % Weight gain ([1]; 100 mg/kg 1x/wk po): 9.1%
Maximum % Weight loss ([1]; 100 mg/kg 1x/wk po): 4.2%
Mortality ([1]; 100 mg/kg 1x/wk po): 0
# of animals ≥20% BWL ([1]; 100 mg/kg QD po 2 on/5 off x 4): 0
% Change in Body Weight at end of Study Day 29 ([1]; 100 mg/kg QD po 2 on/5 off x 4): 1.3%
Maximum % Weight gain ([1]; 100 mg/kg QD po 2 on/5 off x 4): 1.3%
Maximum % Weight loss ([1]; 100 mg/kg QD po 2 on/5 off x 4): −2.8%
Mortality ([1]; 100 mg/kg QD po 2 on/5 off x 4): 0
# of animals ≥20% BWL [1, 3]: 0
% Change in Body Weight at end of Study Day 29 [1, 3]: 0.9%
Maximum % Weight gain [1, 3]: 1.8%
Maximum % Weight loss [1, 3]: −0.6%
Mortality [1, 3]: 0
# of animals ≥20% BWL [1, 4]: 0
% Change in Body Weight at end of Study Day 29 [1, 4]: 6.3%
Maximum % Weight gain [1, 4]: 6.3%
Maximum % Weight loss [1, 4]: 1.9%
Mortality [1, 4]: 0
treatment related toxicity ([2]; 80 mg/kg qd × 5 po): absence of treatment related toxicity
# of animals ≥20% BWL ([2]; 80 mg/kg qdx5 po): 0
% Change in Body Weight at end of Study Day 17 ([2]; 80 mg/kg qdx5 po): −3.2%
Maximum % Weight gain ([2]; 80 mg/kg qdx5 po): −3.2%
Maximum % Weight loss ([2]; 80 mg/kg qdx5 po): −5.5%
Mortality (reason) ([2]; 80 mg/kg qdx5 po, reason: dosing injury): 1 (dosing
FLT PET Average % CBL (tumor proliferation; BM-A1 800 mg bid Qwk × 3): −17.0%
FLT PET Median % CBL (tumor proliferation; BM-A1 800 mg bid Qwk × 3): −20.5%
FLT PET % CBL Cycle 1 (tumor proliferation; BM-A1 800 mg bid Qwk × 3): −28.5% and −21.9% and −29.5% and 8.9% and −19.0% and −11.7%
FLT PET Average % CBL (tumor proliferation; BM-A2 1200 mg bid Qwk × 3): −0.9%
FLT PET Median % CBL (tumor proliferation; BM-A2 1200 mg bid Qwk × 3): 3.2%
FLT PET % CBL Cycle 1 (tumor proliferation; BM-A2 1200 mg bid Qwk × 3): −5.0% and 21.1% and −31.1% and 11.3% and −73.1%
FLT PET Average % CBL (tumor proliferation; BM-B1 400 mg bid × 5 d): −43.4%
FLT PET Median % CBL (tumor proliferation; BM-B1 400 mg bid × 5 d): −32.2%
FLT PET % CBL Cycle 1 (tumor proliferation; BM-B1 400 mg bid × 5 d): −82.5% and −29.3% and −23.4% and −32.2%
FLT PET Average % CBL (tumor proliferation; BM-B2 500 mg bid × 3 d): −39.2%
FLT PET Median % CBL (tumor proliferation; BM-B2 500 mg bid × 3 d): −34.9%
FLT PET % CBL Cycle 1 (tumor proliferation; BM-B2 500 mg bid × 3 d): −34.9% and −62.4% and −24.7% and −19.4% and −54.5%
FLT PET Average % CBL (tumor proliferation; BM-B3 500 mg qd × 5 d): −29.04%
FLT PET Median % CBL (tumor proliferation; BM-B3 500 mg qd × 5 d): −31.0%
FLT PET % CBL Cycle 1 (tumor proliferation; BM-B3 500 mg qd × 5 d): −56.4% and −34.3% and −21.7% and −31% and −1.8%
antiproliferative effect by FLT PET (tumor proliferation; all doses tested, in particular 3 day and 5 day schedules): antiproliferative effects was seen in all doses tested
toxicity of longer schedules (solid tumors; longer schedules): delayed thrombocytopenia
continuous exposure after which maximal apoptosis occurs (solid tumors; solid tumors): about 48 hours
